The record followed here is patent publication US8614187B2, “Peptides, compositions and uses thereof” (The Queen's University of Belfast, priority 2007, dated 2013).

In experiment [1] the test system is rat tail arterial smooth muscle preparation. Description: Rat tail artery smooth muscle bioassay (relaxation of phenylephrine-preconstricted artery). Format: cell-based. The following applies: for % Maximum Response (relaxation): rat tail artery, pre-constricted, at optimum concentration. On the procedure: (A) Arterial Smooth Muscle:
Male albino Wistar rats (200-350 g) were euthanized by asphyxiation followed by cervical dislocation.
The tail artery was prepared as previously described (Hirst et al (1994) Br. J. Radiol. 67, 795-799). Incubation buffer was 95% O2/5% CO2 oxygenated Krebs' solution (NaCl 118 mM, KCl 4.7 mM, NaHCO3 25 mM, NaH2 PO4 1.15 mM, CaCl2 2.5 mM, MgCl2 1.1 mM, glucose 5.6 mM). Constriction or dilation of the arterial smooth muscle preparation was detected by an increase or decrease in pressure generated by water column displacement using pressure transducers connected to a MacLab System (AD Instruments Pty Ltd. Australia). […] Viability was determined using a range of bolus phenylephrine (5 μM-10 μM) exposures and the endothelial layer of the artery was removed by bubbling with oxygen for 10 s. Absence of the endothelial layer was confirmed by the lack of relaxation in response to a 30 min perfusion of acetylcholine (50 μM) after preconstriction with phenylephrine (10 μM).
(§1) For intestinal smooth muscle preparations, one cm thick rings of ileum were carefully placed onto the pins of a MacLab force transducer, one pin acting as a stationary fixed point while the second pin was free, permitting application of tension to the smooth muscle. The muscle rings were gradually exposed to 0.1 g increments in resting tension until the spontaneous contractions originated from a resting tension of 0.5 g. The contracting muscle preparations were allowed to stabilise for 25 min before the application of peptides. After perfusion of arterial preparations with 10 μM phenylephrine to obtain constriction plateaux, relative relaxation was recorded following applications of peptides in the range of 1×10^−5-1×10^−10 M. The intestinal smooth muscle ring preparations were exposed to peptide doses as above and relative changes in tension were recorded.

Experiment [2] concerns rat ileal smooth muscle ring preparation. Description: Rat ileum smooth muscle ring bioassay (constriction of spontaneously contracting ileum). The experiment is classed as cell-based. The following applies: for % Maximum Response (constriction): spontaneously contracting rat ileum, at optimum concentration.
From the text: (B) Small Intestinal Smooth Muscle:
as §1

Experiment [3] concerns Human Microvascular Endothelial Cells (HMEC-1). Briefly: Human microvessel endothelial cell wound scrape (migration) assay. The experiment is classed as cell-based. On the procedure:
(§2) • 1. […] Selective arterial smooth muscle dilators often have pro-angiogenic properties so QUB 698.8 was subjected to a range of appropriate bioassays to determine spectra of activity. • 4. In the human microvessel endothelial cell wound scrape assay, cells are grown on a glass slide to confluence, a standard-sized wound is made with a pipette tip and time taken to repair tear is measured. QUB 698.8 promoted wound closure 42% faster than non-treated controls at an optimum effective concentration of 10 nanomolar (Table 1—panel B and FIGS. 2a and b). • 5. Using an in vitro endothelial cell angiogenic tubule formation assay (Matrigel) QUB 698.8 induced 75% more tubules than time-matched controls at an optimum concentration of 1 nanomolar (Table 1—panel B and FIG. 3). • 6. […] (Table 1—panel B and FIG. 4). This may be indicative of a rapid role in cell cycle synchronization.

The subject of experiment [4] is HMEC-1. Description: In vitro endothelial cell angiogenic tubule formation assay (Matrigel). Format: cell-based, human. On the procedure:
FIG. 3 illustrates the effect of the QUB 698.8 peptide on the ability of HMEC-1 to form tubules on matrigel matrices.
as §2

Experiment [5] has as its system HMEC-1. Description: Endothelial cell proliferation assay (MTT). The experiment is classed as cell-based, human. On the procedure:
FIG. 4 illustrates the effect of the QUB 698.8 peptide on the proliferation of HMEC-1 over 72 hours compared to a non-treatment control.
as §2

[6] abbreviates: migration wound scrape, T = 7 dose response.

By EC50 is commonly meant the concentration that produces a half-maximal response. A high value points to lower potency in that assay. As for “DLPKIN [QUB 698.8, Asp-Leu-Pro-Lys-Ile-Asn]”, in experiment [1], the “Response of rat tail arterial smooth muscle preparation” value is listed as “dose-dependent relaxation”. For the same substance, in experiment [1] (arterial vs ileal smooth muscle), the “Optimum concentration for maximal effect, arterial compared to ileal smooth muscle” value is given as “two orders of magnitude lower”. Also, the EC50 in experiment [1] (rat tail artery relaxation) turned out to be 7 nM; in experiment [2] (rat ileum constriction), 1440 nM; in experiment [3] (setting [6]), 0.339 nM; in experiment [4] (tubule formation), 0.0526 nM; in experiment [5] (proliferation), 0.0659 nM. Besides, the “Optimum Concentration” value in experiment [1] (rat tail artery relaxation) is on record as 10^−7 M; in experiment [2] (rat ileum constriction), 10^−5 M; in experiment [3] (setting [6]), 10^−8 M; in experiment [3] (wound scrape total time to closure) it was 10^−8 M; in experiment [4] (tubule formation) it was 10^−9 M; in experiment [5] (proliferation), 10^−8 M. In experiment [1] (rat tail artery relaxation), the “Potency relative to bradykinin” value is on record as “almost equipotent with bradykinin”. The “Potency relative to maximakinin” value in experiment [1] (rat tail artery relaxation) is reported as “more potent than maximakinin”. Further, in experiment [1], the “% Maximum Response (relaxation)” value came out at 25% relaxation. In addition, the “Response of rat ileal smooth muscle ring preparation” value in experiment [2] was “dose-dependent constriction”. The “Potency relative to bradykinin and maximakinin” value in experiment [2] (rat ileum constriction) is “less potent than both bradykinin and maximakinin”. In addition, in experiment [2], the “% Maximum Response (constriction)” value was found to be 52% Constriction. Moreover, in experiment [3] (migration wound scrape, Other information), the “Time to 50% wound closure” value is “T = 3 hrs”. Moreover, the Peptide effect entry in experiment [3] (migration wound scrape, T = 7 dose response: promoter of wound closure) was “Potent”; in experiment [3] (wound scrape total time to closure: stimulator of initial endothelial migration), “Potent”; in experiment [4] (stimulator of endothelial tubule formation), “Potent”; in experiment [5] (stimulator of endothelial cell proliferation), “Potent”. This substance also displayed an Optimum effective concentration in experiment [3] (wound closure) of 10 nM. Further, in experiment [3] (wound scrape total time to closure, 10^−8 M), the “Time to complete wound closure” value amounted to 16 h. In addition, the Optimum concentration in experiment [4] (tubule formation) was 1 nM. In experiment [5] (after 48 h), the “Endothelial cell number compared to non-treated controls after 48 h” value is “no significant differences”. Moreover, in experiment [5] (beyond 24 hrs), the “Other information: proliferation after 24 hrs” value is on record as “No further”.
Consider “DLPKINRKGPRPPGFSPFR [Mx, Asp-Leu-Pro-Lys-Ile-Asn-Arg-Lys-Gly-Pro-Arg-Pro-Pro-Gly-Phe-Ser-Pro-Phe-Arg, reference compound]”, for which, in experiment [1] (rat tail artery relaxation), the concentration giving a half-maximal response (EC50) turned out to be 6.18 nM and the “Optimum Concentration” value is 10^−7 M. Further, the “% Maximum Response (relaxation)” value in experiment [1] is given as 30% relaxation. In experiment [2] (rat ileum constriction), the EC50 was found to be 534 nM and the “Optimum Concentration” value is on record as 10^−6 M. Further, the “% Maximum Response (constriction)” value in experiment [2] is recorded as 52% Constriction.
